Laboratory results reported in patent publication US9738634B2, “Heterocyclic amide compound and herbicide” (SYNGENTA PARTICIPATIONS AG, priority 2013, dated 2017).

Legend:
Type in all cases: in vivo
barnyard grass [1] = experiment: Test Example 1: weedkilling efficacy, preemergent weed treatment in the submerged state; A: barnyard grass
Source text: (§1) Weedkilling efficacy test on preemergent weed treatment in the submerged state
(§2) Alluvial soil was introduced into 1/10,000 Are Wagner pots, and 4 cm depth submerged conditions were created by addition of water and mixing. Seeds of barnyard grass, bulrush and oval-leafed pondweed were mixed and sown into the aforesaid cups, then 2.5 leaf stage rice seedlings were transplanted. On the sowing day, emulsions of compounds of the present invention prepared according to compounding example 2 were diluted with water to give the specified dosages and applied onto the water surface. The plants were grown after placing the cups in a greenhouse at 25 to 30° C. 3 weeks after the pesticide treatment the effect on each type of plant was investigated on the basis of the following assessment criteria.
(§3) A: barnyard grass, B: bulrush, C: oval-leafed pondweed, D: crabgrass, E: green foxtail, F: barnyard grass, G: wild oat, H: black-grass, I: Italian ryegrass, J: common wind-grass, K: Indian mallow, L: redroot pigweed, M: fig-leafed goosefoot, N: chickweed, O: catchweed, p: birds-eye speedwell, a: transplanted rice, b: directly sown rice, c: corn, d: soybean, e: wheat, f: beet, g: rapeseed
(§4) Further, pesticide dosage (g/ha) indicates the concentration regulated such that treatment was with only the stated number of grams (g), when calculated per hectare (ha).

bulrush [2] = experiment: Test Example 1: weedkilling efficacy, preemergent weed treatment in the submerged state; B: bulrush
Source text: as §1, §2, §3, §4

oval-leafed pondweed [3] = experiment: Test Example 1: weedkilling efficacy, preemergent weed treatment in the submerged state; C: oval-leafed pondweed
Source text: as §1, §2, §3, §4

transplanted rice = experiment: Test Example 1: preemergent weed treatment in the submerged state, effect on crop; a: transplanted rice
Source text: as §1, §2, §3, §4

barnyard grass [4] = experiment: Test Example 2: weedkilling efficacy, growth period weed treatment in the submerged state; A: barnyard grass
Procedure: (§5) Weedkilling efficacy test on growth period weed treatment in the submerged state
as §2, with “and the plants were grown by placing in a greenhouse at 25 to 30° C. When the barnyard grass, bulrush and oval-leafed pondweed had reached the 1-2” for “then 2.5”, “stage,” for “stage rice seedlings were transplanted. On the sowing day,”, “surface.” for “surface. The plants were grown after placing the cups in a greenhouse at 25 to 30° C.”, “the” for “the following”, “criteria of test example 1.” for “criteria.”
as §3, §4

bulrush [5] = experiment: Test Example 2: weedkilling efficacy, growth period weed treatment in the submerged state; B: bulrush
Procedure: as §5
as §2, with “and the plants were grown by placing in a greenhouse at 25 to 30° C. When the barnyard grass, bulrush and oval-leafed pondweed had reached the 1-2” for “then 2.5”, “stage,” for “stage rice seedlings were transplanted. On the sowing day,”, “surface.” for “surface. The plants were grown after placing the cups in a greenhouse at 25 to 30° C.”, “the” for “the following”, “criteria of test example 1.” for “criteria.”
as §3, §4

oval-leafed pondweed [6] = experiment: Test Example 2: weedkilling efficacy, growth period weed treatment in the submerged state; C: oval-leafed pondweed
Procedure: as §5
as §2, with “and the plants were grown by placing in a greenhouse at 25 to 30° C. When the barnyard grass, bulrush and oval-leafed pondweed had reached the 1-2” for “then 2.5”, “stage,” for “stage rice seedlings were transplanted. On the sowing day,”, “surface.” for “surface. The plants were grown after placing the cups in a greenhouse at 25 to 30° C.”, “the” for “the following”, “criteria of test example 1.” for “criteria.”
as §3, §4

Row | SMILES | A: barnyard grass, weed kill grade (barnyard grass [1]; treatment dosage 252 g/ha) | B: bulrush, weed kill grade (bulrush [2]; treatment dosage 252 g/ha) | C: oval-leafed pondweed, weed kill grade (oval-leafed pondweed [3]; treatment dosage 252 g/ha) | a: transplanted rice, effect on crop grade (transplanted rice; treatment dosage 252 g/ha) | A (barnyard grass) weedkilling efficacy grade (barnyard grass [4]; treatment dosage 252 g/ha) | B (bulrush) weedkilling efficacy grade (bulrush [5]; treatment dosage 252 g/ha) | C (oval-leafed pondweed) weedkilling efficacy grade (oval-leafed pondweed [6]; treatment dosage 252 g/ha) | A: barnyard grass, weed kill grade (barnyard grass [1]; treatment dosage 320 g/ha) | B: bulrush, weed kill grade (bulrush [2]; treatment dosage 320 g/ha) | C: oval-leafed pondweed, weed kill grade (oval-leafed pondweed [3]; treatment dosage 320 g/ha) | a: transplanted rice, effect on crop grade (transplanted rice; treatment dosage 320 g/ha) | A (barnyard grass) weedkilling efficacy grade (barnyard grass [4]; treatment dosage 320 g/ha) | B (bulrush) weedkilling efficacy grade (bulrush [5]; treatment dosage 320 g/ha) | C (oval-leafed pondweed) weedkilling efficacy grade (oval-leafed pondweed [6]; treatment dosage 320 g/ha) | other results
1 | CC(C)(C(=O)Nc1cc(Cl)cnc1Cl)N1COCN(c2ccccc2)C1=O [A-3-06] | 5 (weed kill ratio 90% or more, (practically complete withering)) | 5 (weed kill ratio 90% or more, (practically complete withering)) | 4 (weed kill ratio 70% or more, less than 90%) | 1 (weed kill ratio 5% or more, less than 20%) | 3 (weed kill ratio 40% or more, less than 70%) | 4 (weed kill ratio 70% or more, less than 90%) | 2 (weed kill ratio 20% or more, less than 40%) | – | – | – | – | – | – | – | –
2 | CC(C)(C(=O)Nc1cccc(OC(F)F)n1)N1COCN(c2ccccc2)C1=O [A-2-54] | – | – | – | – | – | – | – | 5 (weed kill ratio 90% or more, (practically complete withering)) | 5 (weed kill ratio 90% or more, (practically complete withering)) | 4 (weed kill ratio 70% or more, less than 90%) | 1 (weed kill ratio 5% or more, less than 20%) | 3 (weed kill ratio 40% or more, less than 70%) | 4 (weed kill ratio 70% or more, less than 90%) | 3 (weed kill ratio 40% or more, less than 70%) | –
3 | CC(C)(C(=O)Nc1cc(C(F)(F)F)ccn1)N1COCN(c2ccccc2)C1=O [A-2-42] | 5 (weed kill ratio 90% or more, (practically complete withering)) | 5 (weed kill ratio 90% or more, (practically complete withering)) | 5 (weed kill ratio 90% or more, (practically complete withering)) | 4 (weed kill ratio 70% or more, less than 90%) | 5 (weed kill ratio 90% or more, (practically complete withering)) | 5 (weed kill ratio 90% or more, (practically complete withering)) | 5 (weed kill ratio 90% or more, (practically complete withering)) | – | – | – | – | – | – | – | –
4 | COc1cccc(NC(=O)C(C)(C)N2COCN(c3ccccc3)C2=O)n1 [A-2-52] | 5 (weed kill ratio 90% or more, (practically complete withering)) | 5 (weed kill ratio 90% or more, (practically complete withering)) | 5 (weed kill ratio 90% or more, (practically complete withering)) | 1 (weed kill ratio 5% or more, less than 20%) | 4 (weed kill ratio 70% or more, less than 90%) | 5 (weed kill ratio 90% or more, (practically complete withering)) | 2 (weed kill ratio 20% or more, less than 40%) | – | – | – | – | – | – | – | –
5 | Cc1ccc(N2COCN(C(C)(C)C(=O)Nc3cc(Cl)cc(F)n3)C2=O)cc1 [A-6-11] | – | – | – | – | – | – | – | 5 (weed kill ratio 90% or more, (practically complete withering)) | 5 (weed kill ratio 90% or more, (practically complete withering)) | 5 (weed kill ratio 90% or more, (practically complete withering)) | 0 (weed kill ratio 5% or less (practically no effect)) | 4 (weed kill ratio 70% or more, less than 90%) | 5 (weed kill ratio 90% or more, (practically complete withering)) | 5 (weed kill ratio 90% or more, (practically complete withering)) | –
6 | CC(C)(C(=O)Nc1cc(Cl)cc(Cl)n1)N1COCN(c2ccccc2)C1=O [A-2-17] | 5 (weed kill ratio 90% or more, (practically complete withering)) | 5 (weed kill ratio 90% or more, (practically complete withering)) | 5 (weed kill ratio 90% or more, (practically complete withering)) | 3 (weed kill ratio 40% or more, less than 70%) | 5 (weed kill ratio 90% or more, (practically complete withering)) | 5 (weed kill ratio 90% or more, (practically complete withering)) | 5 (weed kill ratio 90% or more, (practically complete withering)) | – | – | – | – | – | – | – | –
7 | CC1=C(c2cccnc2F)C(=O)N(C(C)(C)C(=O)Nc2cc(C(F)(F)F)ccn2)CO1 [B-2-17] | – | – | – | – | 4 (weed kill ratio 70% or more, less than 90%) | 5 (weed kill ratio 90% or more, (practically complete withering)) | 3 (weed kill ratio 40% or more, less than 70%) | – | – | – | – | – | – | – | A (barnyard grass) weedkilling efficacy grade (barnyard grass [1]; treatment dosage 252 g/ha): 5 (weed kill ratio 90% or more, (practically complete withering)); B (bulrush) weedkilling efficacy grade (bulrush [2]; treatment dosage 252 g/ha): 5 (weed kill ratio 90% or more, (practically complete withering)); C (oval-leafed pondweed) weedkilling efficacy grade (oval-leafed pondweed [3]; treatment dosage 252 g/ha): 5 (weed kill ratio 90% or more, (practically complete withering)); a (transplanted rice) effect on crop grade (transplanted rice; treatment dosage 252 g/ha): 3 (weed kill ratio 40% or more, less than 70%)
8 | CC(C)(C(=O)Nc1cc(Oc2ccccc2)ccn1)N1COCN(c2ccccc2)C1=O [A-2-55] | – | – | – | – | – | – | – | – | – | – | – | – | – | – | A: barnyard grass, weed kill grade (barnyard grass [1]; treatment dosage 234 g/ha): 5 (weed kill ratio 90% or more, (practically complete withering)); B: bulrush, weed kill grade (bulrush [2]; treatment dosage 234 g/ha): 5 (weed kill ratio 90% or more, (practically complete withering)); C: oval-leafed pondweed, weed kill grade (oval-leafed pondweed [3]; treatment dosage 234 g/ha): 5 (weed kill ratio 90% or more, (practically complete withering)); a: transplanted rice, effect on crop grade (transplanted rice; treatment dosage 234 g/ha): 0 (weed kill ratio 5% or less (practically no effect)); A (barnyard grass) weedkilling efficacy grade (barnyard grass [4]; treatment dosage 234 g/ha): 0 (weed kill ratio 5% or less (practically no effect)); B (bulrush) weedkilling efficacy grade (bulrush [5]; treatment dosage 234 g/ha): 2 (weed kill ratio 20% or more, less than 40%); C (oval-leafed pondweed) weedkilling efficacy grade (oval-leafed pondweed [6]; treatment dosage 234 g/ha): 5 (weed kill ratio 90% or more, (practically complete withering))
9 | CC(C)(C(=O)Nc1ccc(C(F)(F)F)cn1)N1COCN(c2ccccc2)C1=O [A-2-43] | – | – | – | – | – | – | – | 3 (weed kill ratio 40% or more, less than 70%) | 5 (weed kill ratio 90% or more, (practically complete withering)) | 5 (weed kill ratio 90% or more, (practically complete withering)) | 0 (weed kill ratio 5% or less (practically no effect)) | 2 (weed kill ratio 20% or more, less than 40%) | 4 (weed kill ratio 70% or more, less than 90%) | 2 (weed kill ratio 20% or more, less than 40%) | –
